# Experiments:
# [1] = target: Serine/threonine-protein kinase MRCK alpha (Homo sapiens) (UniProt Q5VT25); assay: Inhibition of MRCKA (unknown origin) assessed as residual activity at 1000 nM by KINOMEscan analysis relative to control
# [2] = system: Mast/stem cell growth factor receptor Kit (Homo sapiens), P10721 [D816H]; assay: Inhibition of KIT D816H mutant (unknown origin) assessed as residual activity at 1000 nM by KINOMEscan analysis relative to control
# [3] = target: T1, Inhibitor of nuclear factor kappa-B kinase subunit alpha (Homo sapiens) (UniProt O15111); assay: Inhibition of IKK-alpha (unknown origin) assessed as residual activity at 1000 nM by KINOMEscan analysis relative to control
# T1 sequence (whole entry): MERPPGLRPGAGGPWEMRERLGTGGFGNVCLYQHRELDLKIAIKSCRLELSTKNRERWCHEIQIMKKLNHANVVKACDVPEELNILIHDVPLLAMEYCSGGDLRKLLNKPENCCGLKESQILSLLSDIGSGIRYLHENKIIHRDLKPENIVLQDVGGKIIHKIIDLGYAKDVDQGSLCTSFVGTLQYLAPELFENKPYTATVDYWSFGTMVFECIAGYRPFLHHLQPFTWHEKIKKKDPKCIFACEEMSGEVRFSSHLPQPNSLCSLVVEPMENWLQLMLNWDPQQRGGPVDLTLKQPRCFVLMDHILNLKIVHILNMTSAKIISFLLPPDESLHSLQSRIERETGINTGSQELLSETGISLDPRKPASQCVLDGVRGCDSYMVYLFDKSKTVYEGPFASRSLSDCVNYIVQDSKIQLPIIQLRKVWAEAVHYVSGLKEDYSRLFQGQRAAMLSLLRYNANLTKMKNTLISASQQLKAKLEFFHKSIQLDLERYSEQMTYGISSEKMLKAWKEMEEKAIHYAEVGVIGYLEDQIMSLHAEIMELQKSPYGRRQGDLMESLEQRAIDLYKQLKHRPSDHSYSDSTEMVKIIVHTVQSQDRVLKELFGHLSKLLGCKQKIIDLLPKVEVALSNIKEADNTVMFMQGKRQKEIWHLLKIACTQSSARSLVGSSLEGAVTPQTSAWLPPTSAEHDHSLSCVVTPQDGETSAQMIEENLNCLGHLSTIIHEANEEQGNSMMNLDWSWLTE
# [4] = target: Tyrosine-protein kinase Fyn (Homo sapiens) (UniProt P06241); assay: Inhibition of FYN (unknown origin) assessed as residual activity at 1000 nM by KINOMEscan analysis relative to control
# [5] = target: Serine/threonine-protein kinase pim-1 (Homo sapiens) (UniProt P11309); assay: Inhibition of PIM1 (unknown origin) assessed as residual activity at 1000 nM by KINOMEscan analysis relative to control
# [6] = target: T2, Dual specificity mitogen-activated protein kinase kinase 7 (Homo sapiens) (UniProt O14733); assay: Inhibition of MKK7 (unknown origin) assessed as residual activity at 1000 nM by KINOMEscan analysis relative to control
# T2 sequence (whole entry): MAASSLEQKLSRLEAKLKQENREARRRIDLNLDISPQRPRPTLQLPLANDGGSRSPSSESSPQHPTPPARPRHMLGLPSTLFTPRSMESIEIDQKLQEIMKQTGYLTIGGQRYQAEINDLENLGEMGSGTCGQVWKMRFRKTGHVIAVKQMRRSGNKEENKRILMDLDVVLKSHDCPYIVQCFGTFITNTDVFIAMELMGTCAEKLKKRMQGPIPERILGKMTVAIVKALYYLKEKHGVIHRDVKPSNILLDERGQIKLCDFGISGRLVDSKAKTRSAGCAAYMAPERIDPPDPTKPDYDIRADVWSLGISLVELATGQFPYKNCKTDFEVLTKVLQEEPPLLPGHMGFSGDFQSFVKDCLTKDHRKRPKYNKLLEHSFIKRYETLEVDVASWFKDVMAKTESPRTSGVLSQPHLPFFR
# [7] = system: Receptor-type tyrosine-protein kinase FLT3 (Homo sapiens), P36888 [D835H]; assay: Inhibition of FLT3 D835H mutant (unknown origin) assessed as residual activity at 1000 nM by KINOMEscan analysis relative to control
# [8] = target: T3, Dual specificity protein kinase TTK (Homo sapiens) (UniProt P33981); assay: Inhibition of TTK (unknown origin) assessed as residual activity at 1000 nM by KINOMEscan analysis relative to control
# T3 sequence (whole entry): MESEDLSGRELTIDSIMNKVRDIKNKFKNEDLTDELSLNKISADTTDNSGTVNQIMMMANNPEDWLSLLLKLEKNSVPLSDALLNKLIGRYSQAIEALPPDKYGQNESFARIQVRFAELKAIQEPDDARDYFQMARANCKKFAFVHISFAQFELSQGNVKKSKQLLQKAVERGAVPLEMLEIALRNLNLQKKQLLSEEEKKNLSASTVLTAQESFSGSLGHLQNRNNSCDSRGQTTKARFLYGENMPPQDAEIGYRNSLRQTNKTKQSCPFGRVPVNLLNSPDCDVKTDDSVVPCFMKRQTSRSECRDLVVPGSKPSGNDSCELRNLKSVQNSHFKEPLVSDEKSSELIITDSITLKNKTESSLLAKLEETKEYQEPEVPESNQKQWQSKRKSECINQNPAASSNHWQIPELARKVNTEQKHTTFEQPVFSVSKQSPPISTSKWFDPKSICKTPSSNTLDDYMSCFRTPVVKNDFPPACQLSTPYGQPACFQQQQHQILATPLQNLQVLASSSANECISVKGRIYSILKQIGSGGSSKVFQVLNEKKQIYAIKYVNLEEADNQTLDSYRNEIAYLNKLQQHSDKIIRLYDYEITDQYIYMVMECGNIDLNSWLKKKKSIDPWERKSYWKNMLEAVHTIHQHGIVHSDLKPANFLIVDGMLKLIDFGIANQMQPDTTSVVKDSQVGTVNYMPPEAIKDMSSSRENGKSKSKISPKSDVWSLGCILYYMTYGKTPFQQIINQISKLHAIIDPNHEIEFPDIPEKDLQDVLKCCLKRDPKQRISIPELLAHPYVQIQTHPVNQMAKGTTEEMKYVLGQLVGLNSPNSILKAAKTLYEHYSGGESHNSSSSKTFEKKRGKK
# Homo sapiens = species: Homo sapiens; assay: Inhibition of PIP5K1C (unknown origin) assessed as residual activity at 1000 nM by KINOMEscan analysis relative to control
# [9] = target: Serine/threonine-protein kinase RIO2 (Homo sapiens) (UniProt Q9BVS4); assay: Inhibition of RIOK2 (unknown origin) assessed as residual activity at 1000 nM by KINOMEscan analysis relative to control
# Sequence of Serine/threonine-protein kinase RIO2 (Homo sapiens) (Q9BVS4 whole entry, looked up): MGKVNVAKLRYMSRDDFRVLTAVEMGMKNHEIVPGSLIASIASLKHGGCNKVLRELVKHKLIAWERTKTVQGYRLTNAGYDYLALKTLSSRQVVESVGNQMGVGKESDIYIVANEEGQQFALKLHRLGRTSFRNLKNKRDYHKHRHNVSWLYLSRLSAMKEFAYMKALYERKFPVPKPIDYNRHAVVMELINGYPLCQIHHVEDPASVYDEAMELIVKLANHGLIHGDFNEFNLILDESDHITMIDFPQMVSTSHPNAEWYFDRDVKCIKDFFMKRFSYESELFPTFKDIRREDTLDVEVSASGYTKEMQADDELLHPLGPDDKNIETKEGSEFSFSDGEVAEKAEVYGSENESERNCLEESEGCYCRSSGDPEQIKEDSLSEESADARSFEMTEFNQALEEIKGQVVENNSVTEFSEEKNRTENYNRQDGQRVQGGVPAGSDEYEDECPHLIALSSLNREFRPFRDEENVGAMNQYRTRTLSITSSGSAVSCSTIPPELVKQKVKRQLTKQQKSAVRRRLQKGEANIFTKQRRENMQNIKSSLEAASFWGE
# Sequence of Tyrosine-protein kinase Fyn (Homo sapiens) (P06241 2-537 limits assumed): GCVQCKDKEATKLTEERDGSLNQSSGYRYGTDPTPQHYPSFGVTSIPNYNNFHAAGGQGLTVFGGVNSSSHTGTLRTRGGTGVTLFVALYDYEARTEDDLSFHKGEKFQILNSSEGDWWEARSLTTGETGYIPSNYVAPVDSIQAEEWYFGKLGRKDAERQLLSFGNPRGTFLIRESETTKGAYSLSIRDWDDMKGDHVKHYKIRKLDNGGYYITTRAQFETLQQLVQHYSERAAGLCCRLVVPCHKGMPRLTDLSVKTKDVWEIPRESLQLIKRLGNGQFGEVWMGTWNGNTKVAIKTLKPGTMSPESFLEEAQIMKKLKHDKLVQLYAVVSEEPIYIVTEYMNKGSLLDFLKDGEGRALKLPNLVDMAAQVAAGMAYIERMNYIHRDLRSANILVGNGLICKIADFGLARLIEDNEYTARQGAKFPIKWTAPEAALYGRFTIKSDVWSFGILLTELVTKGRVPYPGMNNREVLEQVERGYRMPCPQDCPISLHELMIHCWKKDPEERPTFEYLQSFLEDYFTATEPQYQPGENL
# Sequence of Serine/threonine-protein kinase MRCK alpha (Homo sapiens) (Q5VT25 whole entry): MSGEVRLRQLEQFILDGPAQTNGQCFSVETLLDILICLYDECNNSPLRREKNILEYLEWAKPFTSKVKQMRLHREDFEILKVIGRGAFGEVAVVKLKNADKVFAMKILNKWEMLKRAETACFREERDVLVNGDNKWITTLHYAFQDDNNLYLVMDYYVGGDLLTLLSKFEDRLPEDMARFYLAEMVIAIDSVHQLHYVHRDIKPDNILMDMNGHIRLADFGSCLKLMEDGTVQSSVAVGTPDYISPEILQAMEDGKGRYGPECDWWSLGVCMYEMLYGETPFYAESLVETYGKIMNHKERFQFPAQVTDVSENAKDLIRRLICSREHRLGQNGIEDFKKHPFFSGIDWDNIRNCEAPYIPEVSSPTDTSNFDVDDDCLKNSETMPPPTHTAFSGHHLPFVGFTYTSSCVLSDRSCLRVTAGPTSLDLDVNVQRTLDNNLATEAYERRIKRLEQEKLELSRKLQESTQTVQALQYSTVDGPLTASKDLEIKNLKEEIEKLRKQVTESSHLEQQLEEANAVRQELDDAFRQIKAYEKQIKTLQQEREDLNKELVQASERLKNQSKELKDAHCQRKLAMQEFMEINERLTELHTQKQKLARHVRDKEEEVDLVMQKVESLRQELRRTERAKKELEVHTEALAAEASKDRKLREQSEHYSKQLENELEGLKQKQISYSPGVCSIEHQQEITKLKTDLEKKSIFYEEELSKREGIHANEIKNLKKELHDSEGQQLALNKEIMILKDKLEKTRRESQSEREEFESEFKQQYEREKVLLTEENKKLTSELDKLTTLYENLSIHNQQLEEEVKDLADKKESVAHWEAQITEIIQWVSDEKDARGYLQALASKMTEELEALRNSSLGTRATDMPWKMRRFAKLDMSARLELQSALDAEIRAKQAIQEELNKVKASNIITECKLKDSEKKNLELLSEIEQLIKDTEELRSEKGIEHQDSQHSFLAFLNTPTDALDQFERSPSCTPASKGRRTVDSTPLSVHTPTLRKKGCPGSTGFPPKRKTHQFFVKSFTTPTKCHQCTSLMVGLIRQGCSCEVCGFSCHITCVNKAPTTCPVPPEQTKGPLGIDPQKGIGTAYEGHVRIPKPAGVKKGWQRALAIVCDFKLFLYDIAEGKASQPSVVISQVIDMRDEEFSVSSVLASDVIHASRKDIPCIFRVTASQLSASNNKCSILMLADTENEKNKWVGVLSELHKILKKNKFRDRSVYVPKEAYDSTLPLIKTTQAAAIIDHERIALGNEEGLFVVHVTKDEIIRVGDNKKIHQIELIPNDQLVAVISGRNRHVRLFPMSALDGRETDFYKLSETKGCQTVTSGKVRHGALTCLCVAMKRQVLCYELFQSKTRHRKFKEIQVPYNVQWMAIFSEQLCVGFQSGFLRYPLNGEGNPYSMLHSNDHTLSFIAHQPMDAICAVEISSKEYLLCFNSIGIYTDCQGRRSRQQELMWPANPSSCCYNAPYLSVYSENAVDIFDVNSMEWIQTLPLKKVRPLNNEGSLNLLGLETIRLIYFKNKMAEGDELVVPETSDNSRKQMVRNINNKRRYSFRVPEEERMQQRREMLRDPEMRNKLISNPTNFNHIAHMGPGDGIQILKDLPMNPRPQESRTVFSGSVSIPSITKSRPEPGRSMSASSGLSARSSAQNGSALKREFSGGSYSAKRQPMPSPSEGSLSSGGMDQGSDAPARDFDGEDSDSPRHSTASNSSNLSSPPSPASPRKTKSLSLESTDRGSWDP
# Sequence of Serine/threonine-protein kinase pim-1 (Homo sapiens) (P11309 whole entry, looked up): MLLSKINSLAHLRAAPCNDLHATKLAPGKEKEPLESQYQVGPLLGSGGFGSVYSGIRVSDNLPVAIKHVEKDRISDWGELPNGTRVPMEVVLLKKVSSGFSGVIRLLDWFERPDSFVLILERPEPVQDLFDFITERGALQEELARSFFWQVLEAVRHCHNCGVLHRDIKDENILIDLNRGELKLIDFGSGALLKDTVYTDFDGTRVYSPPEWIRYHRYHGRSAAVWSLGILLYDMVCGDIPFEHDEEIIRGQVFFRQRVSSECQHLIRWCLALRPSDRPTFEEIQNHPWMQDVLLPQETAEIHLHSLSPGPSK
# Sequence of Mast/stem cell growth factor receptor Kit (Homo sapiens), P10721 [D816H] (P10721 whole entry D816H): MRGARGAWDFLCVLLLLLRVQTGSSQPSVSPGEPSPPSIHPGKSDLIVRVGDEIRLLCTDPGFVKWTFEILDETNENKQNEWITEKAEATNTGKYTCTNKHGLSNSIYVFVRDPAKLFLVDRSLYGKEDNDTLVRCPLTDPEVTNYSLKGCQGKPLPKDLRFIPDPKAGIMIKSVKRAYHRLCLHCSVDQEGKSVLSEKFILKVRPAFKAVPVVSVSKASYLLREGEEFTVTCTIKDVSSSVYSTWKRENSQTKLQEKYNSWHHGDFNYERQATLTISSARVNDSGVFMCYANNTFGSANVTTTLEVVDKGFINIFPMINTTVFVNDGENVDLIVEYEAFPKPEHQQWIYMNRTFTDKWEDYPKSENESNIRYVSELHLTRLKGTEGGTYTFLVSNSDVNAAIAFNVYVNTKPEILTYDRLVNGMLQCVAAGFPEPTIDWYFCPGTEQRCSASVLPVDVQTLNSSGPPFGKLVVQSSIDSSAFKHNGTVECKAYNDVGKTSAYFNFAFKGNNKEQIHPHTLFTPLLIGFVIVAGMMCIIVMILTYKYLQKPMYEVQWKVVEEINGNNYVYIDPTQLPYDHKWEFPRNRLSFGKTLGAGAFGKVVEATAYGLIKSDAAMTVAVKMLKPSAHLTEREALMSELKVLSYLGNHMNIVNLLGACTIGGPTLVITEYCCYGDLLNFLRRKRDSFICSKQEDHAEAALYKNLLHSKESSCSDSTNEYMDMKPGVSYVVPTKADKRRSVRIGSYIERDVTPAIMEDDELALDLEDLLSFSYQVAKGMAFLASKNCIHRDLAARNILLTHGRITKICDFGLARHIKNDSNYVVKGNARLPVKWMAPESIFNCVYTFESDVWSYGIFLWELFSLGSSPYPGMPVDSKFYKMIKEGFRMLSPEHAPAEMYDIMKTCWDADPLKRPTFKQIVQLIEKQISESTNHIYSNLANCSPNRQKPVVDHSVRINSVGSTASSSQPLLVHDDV
Compound,Activity [1] [%],Activity [2] [%],Activity [3] [%],Activity [4] [%],Activity [5] [%],Activity [6] [%],Activity [7] [%],Activity [8] [%],Activity (Homo sapiens) [%],Activity [9] [%]
COc1cc2nc(C)nc(N[C@H](C)c3cccc(-c4cn[nH]c4)c3)c2cc1OC,94,88,81,72,79,98,100,78,75,61
COc1cc2ncnc(N[C@H](C)c3cccc4ccccc34)c2cc1OC,100,97,70,100,98,77,96,95,82,82
